*1 amine or outer side, *2 acyl side, *3 side chain or, on linkers, in order; H or OH if unused. Where a SMILES comes first, the peptide text is derived from it. Bridges are numbered along the chain shown (N, C = ends). [ ]: non-standard residue; d: D form. ξ: configuration not given here. X2 = CN([C@@H](Cc1c[nH]c2cc(Cl)c(O)cc12)C(=O)[*:2])[*:1]; X1 = O=C([C@H](Cc1c[nH]c2cc(Cl)c(O)cc12)N[*:1])[*:2]; Ile(3ξ) = CCC(C)[C@H](N)C(=O)O; NMeL = CN[C@@H](CC(C)C)C(=O)O; CO = O=C([*:1])[*:2]
Biological target: T1, carboxypeptidase U (Homo sapiens, UniProt Q96IY4)
T1 sequence (Q96IY4 115-423): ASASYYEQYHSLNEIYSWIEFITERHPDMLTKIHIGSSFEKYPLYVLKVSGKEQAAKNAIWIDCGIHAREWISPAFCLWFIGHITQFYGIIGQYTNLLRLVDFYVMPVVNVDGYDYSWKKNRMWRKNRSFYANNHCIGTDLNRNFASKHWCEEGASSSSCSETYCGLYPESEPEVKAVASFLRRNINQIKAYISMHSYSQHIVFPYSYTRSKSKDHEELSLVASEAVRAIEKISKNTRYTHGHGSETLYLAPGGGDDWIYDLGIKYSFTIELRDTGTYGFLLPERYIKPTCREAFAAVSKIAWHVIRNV
Test: carboxypeptidase U inhibition assay (Hendriks et al., Clin. Chem. 1985), substrate concentration 4 mM
Format: biochemical
Settings: substrate concentration of 4 mM
Description: The inhibiting effect of the compounds of the present invention was estimated using the assay described in: Dirk Hendriks, Simon Scharpé and Marc van Sande, Clinical Chemistry, 31, 1936-1939 (1985); and Wei Wang, Dirk F. Hendriks, Simon S. Scharpé, The Journal of Biological Chemistry, 269, 15937-15944 (1994), using a substrate concentration of 4 mM.
The activities of certain Examples in the assay described in: Dirk Hendriks, Simon Sharpé and Marc van Sande, Clinical Chemistry, 31, 1936-1939 (1985), using a substrate concentration of 4 mM, are presented in Table I below.

SMILES	IC50 [µM]
CC(C)C[C@@H]1NC(=O)[C@H](C)NC(=O)[C@H](NC(=O)N[C@@H](CCCNC(=N)N)C(=O)O)CCCCNC(=O)[C@H](Cc2c[nH]c3cc(Cl)c(O)cc23)NC(=O)[C@H](CC(C)C)N(C)C1=O [Compound 2] ({Arg-CO}-[dK]AL[NMeL][X1]; lactam 1-C)	0.1
CCC(C)[C@H](NC(=O)N[C@@H]1CCCCNC(=O)[C@H](Cc2ccccc2)NC(=O)[C@H](Cc2c[nH]c3cc(Cl)c(O)cc23)N(C)C(=O)[C@H](CC(C)C)NC(=O)[C@H](C(C)CC)NC1=O)C(=O)O (some centres unmarked) [Compound 8] ({Ile(3ξ)-CO}-[dK][Ile(3ξ)]L[X2]F; lactam 1-C)	2.5

From US20080039376A1, “Use of Cyclic Anabaenopeptin-type Peptides for the Treatment of a Condition Wherein Inhibition of Carboxypeptidase U is Beneficial, Novel Anabaenopeptin Derivatives and Intermediates Thereof” (A[…], priority 2003, published 2008)
